The source of these data is US11000516B2 (priority 2015, dated 2021).

Data set [1] relates to EDEN1 (clinical DENV1 isolate). In words: Antiviral effect in BHK-21 cells, plaque assay of supernatant 48 h pi. It is filed as cell-based. Particulars: read-out: EC50. The procedure:
(§1) Cells were infected with DENV strains for 1 hour at 37° C. and washed once with culture media. […] The supernatants were subjected to standard plaque assay and the EC50 values were determined using the GraphPad Prism software.
(§2) NITD008, an adenosine analog inhibitor of DENV polymerase (Yin et al., 2009) was used as a positive control.

Data set [2] deals with EDEN2 (clinical DENV2 isolate). The description is as above. It is filed as cell-based. Particulars: BHK-21, EDEN2, MOI 0.3; read-out: EC50. The procedure:
as §1, §2

Data set [3] deals with S221 (mouse-adapted DENV2 strain). Described as above. It is filed as cell-based. The following applies: BHK-21, S221, MOI 0.3; read-out: EC50. The procedure:
as §1, §2

Data set [4] concerns EDEN1 (clinical DENV1 isolate). The data set is described as follows: Antiviral effect in HuH-7 cells, plaque assay of supernatant 48 h pi. It is filed as cell-based. Particulars: read-out: EC50. Here is the method:
as §1, §2

For data set [5], the system named is EDEN2 (clinical DENV2 isolate). The description is as above. It is filed as cell-based. Particulars: HuH-7, EDEN2, MOI 0.3; read-out: EC50. The procedure:
as §1, §2

The subject of data set [6] is S221 (mouse-adapted DENV2 strain). The description is as above. It is filed as cell-based. The following applies: HuH-7, S221, MOI 0.3; read-out: EC50. The procedure:
as §1, §2

The subject of data set [7] is EDEN1 (clinical DENV1 isolate). In words: Antiviral effect in Vero cells, plaque assay of supernatant 48 h pi. The format is cell-based. Here is the method: as §1, §2
In data set [8] the test system is EDEN2 (clinical DENV2 isolate). Described as above. The format is cell-based. The following applies: EDEN2, MOI 0.3, read-out: EC50. The procedure:
as §1, §2

Data set [9] concerns S221 (mouse-adapted DENV2 strain). The data set is described as above. It is filed as cell-based. The following applies: S221, MOI 0.3, read-out: EC50. Here is the method:
as §1, §2

Data set [10] relates to EDEN1 (clinical DENV1 isolate). In words: Ab-mediated infection of THP-1 cells with enhancing concentration of 4G2 Ab. It is filed as cell-based. The following applies: THP-1 with 4G2 Ab, EDEN1, MOI 2, single experiment; read-out: EC50. Here is the method:
as §1, §2

The subject of data set [11] is EDEN2 (clinical DENV2 isolate). Described as above. It is filed as cell-based. The following applies: THP-1 with 4G2 Ab, EDEN2, MOI 50, single experiment; read-out: EC50. The procedure:
as §1, §2

The subject of data set [12] is S221 (mouse-adapted DENV2 strain). Described as above. The format is cell-based. Particulars: THP-1 with 4G2 Ab, S221, MOI 2, single experiment; read-out: EC50. The procedure:
as §1, §2

Data set [13] deals with EDEN1. The data set is described as follows: Non-lethal viremia mouse model. The format is in vivo, mice. The procedure: (§3) Mice were inoculated i.v. with EDEN1 (7×10^7 pfu) or EDEN2 (1×10^8 pfu). […] Average viral copy numbers on day 1 and 2 were measured using mixed serum of each group. […] A P value less than 0.05 was considered significant (*P<0.05). The number of mice per group is 6. […] Average viral copy numbers on days 4 and 5 were measured using mixed serum of each group. […] The virological log reduction (VLR) from day 3 to day 6 was also shown as the mean value and standard deviations. The number of mice per group is 6.
(§4) Since dengue fever patients in general present at a clinic when viremia is at a peak level (Low et al., 2014; Nguyen et al., 2013; Tricou et al., 2010), we next compared the 2 different dosing regimens; one started at the time of infection and another started at the time of peak viremia (on day 3 pi) similar to human situation (FIG. 4A). In this experiment, we used a non-lethal viremia mouse model, which permits the tracking of viremia kinetics for a longer period of time (FIG. 1B).

For data set [14], the system named is EDEN2. The data set is described as follows: Non-lethal viremia mouse model. The format is in vivo, mice. The procedure: as §3, §4
For data set [15] the following is noted: mice, celgosivir 50 mg/kg BID; cited from earlier work.
For data set [16] the following is noted: CELADEN study regimen, human; cited from earlier work.

Molecules are shown by their SMILES.

What is called EC50 is the concentration giving half of the maximal effect. Take `C#C[C@@]1(O)[C@H](O)[C@@H](CO)O[C@H]1n1ccc2c(N)ncnc21` [NITD008, reference compound]: the EC50 stood at 608 nM in [1] (BHK-21, EDEN1, MOI 0.01); 865 nM in [1] (BHK-21, EDEN1, MOI 0.3); 354 nM in data set [2]; 509 nM in data set [3]; 356 nM in data set [4] (HuH-7, EDEN1, MOI 0.01); 684 nM in [4] (HuH-7, EDEN1, MOI 0.3). For the same compound, the EC50 in data set [5] came to 98 nM; in data set [6], 74 nM; in [7] (EDEN1, MOI 0.01, read-out: EC50), 910 nM; in data set [7] (EDEN1, MOI 0.3, read-out: EC50), 2820 nM; in data set [8], 1170 nM; in data set [9], 1480 nM. Also, the half-maximal effective concentration (EC50) in [10] came to 358 nM; in data set [11], 679 nM; in [12] it was 390 nM. Moreover, the “viremia reduction on day 3 pi” value is on record as 3.5 fold in [13] (EDEN1, NITD008 25 mg/kg BID from day 0) and 4.9 fold in [14] (EDEN2, NITD008 25 mg/kg BID from day 0). Further, the “VLR from day 3 to day 6” value in data set [13] (EDEN1, NITD008 25 mg/kg BID started on day 3) stood at 0.96; in [14] (EDEN2, NITD008 25 mg/kg BID started on day 3), 2.24.

Consider `O[C@H]1[C@H](O)[C@@H](O)CN2CC[C@H](O)[C@H]12` [castanospermine], for which the “steady state minimum castanospermine concentration” value in data set [15] is given as 400 nanograms/ml. Further, the “steady state maximum castanospermine concentration” value in data set [16] is reported as 5100 nanograms/ml.
